Reference: PMC12652692, “Synthesis and In Vitro Anticancer Evaluation of Novel Phosphonium Derivatives of Chrysin” (International Journal of Molecular Sciences, 2025)

Assays:
Assay type in all cases: cell-based
[1] = tested on: Breast Cancer panel; test: NCI60 five-dose screen, panel mean; details: Homo sapiens; mean over Breast Cancer panel
Experimental: (§1) Since all new conjugates (3a–h) had notable antiproliferative activities on several tumor cell lines in the course of the one-dose screening, they were subjected to a five-dose test. […] J. Mol. Sci. 2025, 26, 11063 10 of 10 S.3. NCI60 Screening A detailed description of the NCI screening procedures can also be found on the website of NCI [39], and in our previous work. S.3.1. One-Dose Screen All candidates were examined at first at a single high dose (10 μM) in the full NCI60 cell panel. The value reported for the one-dose test is growth relative to the no-drug control and relative to the time zero number of cells. This made possible the disclosure of both growth inhibition (numbers between 0 and 100) and lethality (numbers less than 0). For example, a value of 100 means no growth inhibition. A value of 20 would mean 80% growth inhibition. A value of 0 means no net growth over the course of the analysis. A value of −20 would mean 20% lethality. A value of −100 means all cells are dead. S.3.2. […] The human tumor cell lines of the cancer screening panel were grown in RPMI 1640 medium containing 5% fetal bovine serum and 2 mM l-glutamine. Characteristically, cells were injected in 96-well microtiter plates in 0.1 mL at plating densities ranging from 5000 to 40,000 cells/well, depending on the doubling time of individual cell lines. After cell inoculation, the microtiter plates were incubated at 37 °C, 5% carbon dioxide, 95% air, and 100% relative humidity for 24 hours before the addition of tested compounds. After 24 hours, 2 plates of each cell line were fixed in situ with Cl3COOH (TCA), to represent a measurement of the cell population for each cell line at the time of drug addition (tz). Tested compounds were solubilized in DMSO at 400-fold the desired final maximum test concentration and stored frozen before application. In the course of the drug addition, an aliquot of frozen concentrate was thawed and diluted to twice the desired final maximum test concentration with a complete medium containing 50 μg mL−1 gentamicin. Additional four, 10-fold or ½ log serial dilutions were produced to furnish a total of five drug concentrations plus control. Aliquots of 0.1 mL of these different drug dilutions were added to the appropriate microtiter wells already containing 0.1 mL of medium, resulting in the required final drug concentrations. Following drug addition, the plates were incubated at 37 °C, 5% carbon dioxide, 95% air, and 100% relative humidity for an additional 48 hours. For adherent cells, the test was finished by the addition of cold Cl3COOH. Cells were fixed in situ by the addition of 50 μL of cold 50% (w/v) Cl3COOH, and incubated at 4 °C for 1 hour. The supernatant was discarded, and the plates were washed with H2O (5×) and dried in air. Sulforhodamine B (SRB) solution (0.1 mL) at 0.4% (w/v) in 1% CH3COOH was added to each well, and plates were incubated at RT for 10 min. After staining, the unbound dye was removed by washing five times with 1% CH3COOH, and the plates were dried in the air. The bound stain is afterward solubilized with a 10 mM trizma base, and the absorbance is read on an automated plate reader at λ = 515 nm. Utilizing the seven absorbance measurements [time zero (tz), control growth (c), and test growth in the presence of the drug at the five concentration levels (ti)], the percentage growth was determined at each of the drug concentration levels. Growth inhibition (%) was calculated as: [(ti − tz)/(c − tz)] × 100, for concentrations where ti ≥ tz (1) [(ti − tz)/(tz)] × 100, for concentrations where ti < tz. (2) Three dose‒response parameters were calculated as follows. GI50 (growth inhibition of 50%) was determined from Equation (3), which is the drug concentration resulting in a 50% reduction in the net protein increase (as measured by SRB staining) in control cells in the course of the drug incubation. [(ti − tz)/(c − tz)] × 100 = 50 (3)

[2] = tested on: Colon Cancer panel; test: NCI60 five-dose screen, panel mean; details: Homo sapiens; mean over Colon Cancer panel
Experimental: as §1

[3] = tested on: Leukemia panel; test: NCI60 five-dose screen, panel mean; details: Homo sapiens; mean over Leukemia panel
Experimental: as §1

[4] = tested on: Ovarian Cancer panel; test: NCI60 five-dose screen, panel mean; details: Homo sapiens; mean over Ovarian Cancer panel
Experimental: as §1

[5] = tested on: CNS Cancer panel; test: NCI60 five-dose screen, panel mean; details: Homo sapiens; mean over CNS Cancer panel
Experimental: as §1

[6] = tested on: Non-small-Cell Lung Cancer panel; test: NCI60 five-dose screen, panel mean; details: Homo sapiens; mean over Non-small-Cell Lung Cancer panel
Experimental: as §1

[7] = tested on: A549/ATCC; test: NCI60 five-dose screen; details: Homo sapiens, Non-small-Cell Lung Cancer
Experimental: as §1

[8] = tested on: 786-0; test: NCI60 five-dose screen; details: Homo sapiens; 786-0, Renal Cancer
Experimental: as §1

[9] = tested on: SF-268; test: NCI60 five-dose screen; details: Homo sapiens; SF-268, CNS Cancer
Experimental: as §1

[10] = tested on: NCI-H226; test: NCI60 five-dose screen; details: Homo sapiens; NCI-H226, Non-small-Cell Lung Cancer
Experimental: as §1

[11] = tested on: SR; test: NCI60 five-dose screen; details: Homo sapiens, Leukemia
Experimental: as §1

[12] = tested on: KM12; test: NCI60 five-dose screen; details: Homo sapiens; KM12, Colon Cancer
Experimental: as §1

[13] = tested on: HCT-116; test: NCI60 five-dose screen; details: Homo sapiens; HCT-116, Colon Cancer
Experimental: as §1

[14] = tested on: HT29; test: NCI60 five-dose screen; details: Homo sapiens, HT-29; HT29, Colon Cancer
Experimental: as §1

[15] = tested on: NCI-H522; test: NCI60 five-dose screen; details: Homo sapiens; NCI-H522, Non-small-Cell Lung Cancer
Experimental: as §1

[16] = tested on: MDA-MB-435; test: NCI60 five-dose screen; details: Homo sapiens; MDA-MB-435, Melanoma
Experimental: as §1

[17] = tested on: NCI-H322M; test: NCI60 five-dose screen; details: Homo sapiens, Non-small-Cell Lung Cancer
Experimental: as §1

[18] = tested on: RPMI-8226; test: NCI60 five-dose screen; details: Homo sapiens; RPMI-8226, Leukemia
Experimental: as §1

[19] = tested on: COLO 205; test: NCI60 five-dose screen; details: Homo sapiens; COLO 205, Colon Cancer
Experimental: as §1

[20] = tested on: T-47D; test: NCI60 five-dose screen; details: Homo sapiens, T47D, Breast Cancer
Experimental: as §1

[21] = tested on: K-562; test: NCI60 five-dose screen; details: Homo sapiens, K562; K-562, Leukemia
Experimental: as §1

[22] = tested on: A498; test: NCI60 five-dose screen; details: Homo sapiens; A498, Renal Cancer
Experimental: as §1

Structure (SMILES) | GI50 [1] | GI50 [2] | GI50 [3] | GI50 [4] | GI50 [5] | GI50 [6] | GI50 [7] | GI50 [8] | GI50 [9] | GI50 [10] | GI50 [11] | GI50 [12] | GI50 [13] | GI50 [14] | GI50 [15] | GI50 [16] | GI50 [17] | GI50 [18] | GI50 [19] | GI50 [20] | also measured
O=c1cc(-c2ccccc2)oc2cc(OCCCC[P+](c3ccccc3)(c3ccccc3)c3ccccc3)cc(O)c12 [3a] | 240 nM | 620 nM | 260 nM | 890 nM | 300 nM | 460 nM | 908 nM | 553 nM | 380 nM | 354 nM | 289 nM | 401 nM | 297 nM | 1280 nM | 228 nM | 299 nM | 976 nM | 205 nM | 1020 nM | 228 nM | GI50 [21]: 216 nM; GI50 [22]: 422 nM
Cc1ccc([P+](CCCCOc2cc(O)c3c(=O)cc(-c4ccccc4)oc3c2)(c2ccc(C)cc2)c2ccc(C)cc2)cc1 [3b] | 250 nM | 390 nM | 220 nM | 480 nM | 300 nM | 310 nM | 393 nM | 373 nM | 285 nM | 277 nM | 261 nM | 160 nM | 248 nM | 855 nM | 274 nM | 238 nM | 532 nM | 144 nM | 419 nM | 105 nM | GI50 [21]: 137 nM; GI50 [22]: 400 nM
COc1ccc([P+](CCCCOc2cc(O)c3c(=O)cc(-c4ccccc4)oc3c2)(c2ccc(OC)cc2)c2ccc(OC)cc2)cc1 [3c] | 330 nM | 640 nM | 340 nM | 760 nM | 460 nM | 590 nM | 600 nM | 1210 nM | 351 nM | 606 nM | 300 nM | 207 nM | 337 nM | 1250 nM | 405 nM | 319 nM | 1420 nM | 235 nM | 455 nM | 302 nM | GI50 [21]: 376 nM; GI50 [22]: 1570 nM
O=c1cc(-c2ccccc2)oc2cc(OCCCC[P+](c3ccc(F)cc3)(c3ccc(F)cc3)c3ccc(F)cc3)cc(O)c12 [3d] | 1610 nM | 1690 nM | 1710 nM | 3900 nM | 1670 nM | 1970 nM | 3210 nM | 1830 nM | 1570 nM | 1820 nM | 1990 nM | 1700 nM | 1670 nM | 1840 nM | 1820 nM | 1550 nM | 1990 nM | 1310 nM | 1620 nM | 1450 nM | GI50 [21]: 1400 nM; GI50 [22]: 2070 nM
O=c1cc(-c2ccccc2)oc2cc(OCCCC[P+](C3CCCCC3)(C3CCCCC3)C3CCCCC3)cc(O)c12 [3e] | 590 nM | 940 nM | 420 nM | 1950 nM | 750 nM | 1070 nM | 1330 nM | 1570 nM | 1040 nM | 1100 nM | 260 nM | 382 nM | 882 nM | 1770 nM | 457 nM | 341 nM | 1580 nM | 182 nM | 812 nM | 397 nM | GI50 [21]: 402 nM; GI50 [22]: 1690 nM
COc1c(C)cc([P+](CCCCOc2cc(O)c3c(=O)cc(-c4ccccc4)oc3c2)(c2cc(C)c(OC)c(C)c2)c2cc(C)c(OC)c(C)c2)cc1C [3f] | 220 nM | 410 nM | 120 nM | 510 nM | 280 nM | 290 nM | 314 nM | 338 nM | 525 nM | 249 nM | 162 nM | 195 nM | 256 nM | 646 nM | 221 nM | 296 nM | 432 nM | 110 nM | 791 nM | 121 nM | GI50 [21]: 34 nM; GI50 [22]: 367 nM
Cc1ccccc1[P+](CCCCOc1cc(O)c2c(=O)cc(-c3ccccc3)oc2c1)(c1ccccc1C)c1ccccc1C [3g] | 250 nM | 580 nM | 210 nM | 820 nM | 330 nM | 450 nM | 417 nM | 291 nM | 279 nM | 399 nM | 206 nM | 280 nM | 265 nM | 1220 nM | 341 nM | 320 nM | 1380 nM | 135 nM | 351 nM | 208 nM | GI50 [21]: 279 nM; GI50 [22]: 462 nM
O=c1cc(-c2ccccc2)oc2cc(OCCCC[P+](c3ccccc3)(c3ccccc3)c3ccccn3)cc(O)c12 [3h] | 530 nM | 1070 nM | 260 nM | 1890 nM | 770 nM | 1070 nM | 1130 nM | 1570 nM | 760 nM | 1560 nM | 214 nM | 523 nM | 650 nM | 1750 nM | 320 nM | 376 nM | 2040 nM | 248 nM | 1640 nM | 259 nM | GI50 [21]: 189 nM; GI50 [22]: 1730 nM
